Patent US10233195B2, “Anti-fibrotic pyridinones” (InterMune, Inc., priority 2014, dated 2019)

How the values were obtained:
[1] = test system: Fibroblasts (primary human lung and dermal, HFL-1, 3T3 etc); assay: Cell proliferation assay (BrdU incorporation); type: cell-based; conditions: HFL1, stimulant (LPA, TGFb, serum etc), 50% inhibition of the increase of BrdU incorporation
Experimental: Assay of Inhibitory Effect on Cell Proliferation (BrdU Incorporation)
Fibroblasts (primary human lung and dermal, HFL-1, 3T3 etc) were plated on a 96-well plate and serum starved for 24-48 hours. The media were then exchanged for media containing stimulants (LPA, TGFb, serum etc) and cultured further for 16-24 hours before BrdU addition. After culturing for another 8 hours, cells were washed with PBS and the amount of BrdU incorporated into the cells was assayed by absorbance at 450 nm using the Cell proliferation ELISA system (RPN250, Amersham LIFE SCIENCE). The difference between the amount of BrdU incorporated in the stimulant-added well and the amount of BrdU incorporated in the well containing no stimulant represented the amount of BrdU incorporation accelerated by stimulant. The increase of BrdU incorporation without the addition of test compounds was set as 100% and the concentration of compound with 50% inhibition in the increase of BrdU incorporation (IC50 value) was determined. The test compounds were added 0-30 min before stimulant addition.
Compounds of some embodiments were prepared according to synthetic methods described herein and assay data obtained for IC50 for BrdU inhibition. The assay data obtained is presented in Table 3, in which A=less than 50 μM, B=greater than or equal to 50 μM and less than or equal to 200 μM; and C=greater than 200 μM.

[2] = test system: TGF-b induced Endothelin-1 production; assay: ET-1 assay: inhibitory effect on TGF-b induced endothelin-1 production; type: cell-based; conditions: Homo sapiens, Fibroblast; fibroblasts, stimulant (TGFb, serum, LPA etc), ET-1 in media by ELISA, 4-parameter fit
In short: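 Fibroblasts (primary human lung/dermal, HFL-1, 3T3) serum-starved 0-48 h, preincubated ~30 min with compound, then stimulated (TGFb, serum or LPA) for 16-48 h. Secreted ET-1 measured by ELISA; EC50 from 4-parameter logistic fit, with CC50 from ATPlite in the same wells.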

Row | SMILES | IC50 [1] [µM] | EC50 [2] [µM]
1 | Cn1cc(-c2c[nH]c(=O)cc2NCc2ncccn2)cn1 [Compound 542] | < 50 | < 50
2 | O=c1c2[nH]ccc2c(-c2ccc(F)cc2)cn1-c1ccc(OC(F)(F)F)cc1 [Compound 591] | > 200 | < 50
3 | Cn1cc(-c2cn(-c3ccc(OC(F)(F)F)cc3)c(=O)cc2NCc2ccc(F)cc2)cn1 [Compound 407] | < 50 | < 50
4 | CCn1ccc2c(-c3cnn(CCO)c3)cn(-c3ccc(OC(F)(F)F)cc3)c(=O)c21 [Compound 615] | < 50 | < 50
5 | CCOc1ccc(-n2cc(-c3cnn(C)c3)c3nccnc3c2=O)c(C)c1 [Compound 63] | < 50 | < 50
6 | Cc1cc(=O)n(-c2ccc(OC(F)(F)F)cc2)cc1-c1cn(C)nc1C(F)(F)F [Compound 238] | < 50 | 50 to 200
7 | CCOc1ccc(Oc2cc(=O)n(-c3ccc(OC(F)(F)F)cc3)cc2-c2cnn(C)c2)cc1C#N [Compound 157] | > 200 | < 50
8 | CCOc1ccc(-n2cc(C(F)(F)F)ccc2=O)c(C)c1 [Compound 278] | 50 to 200 | 50 to 200
9 | CCn1ncc2c(-c3cnn(C)c3)cn(-c3ccc(OC(F)(F)F)cc3)c(=O)c21 [Compound 658] | > 200 | 
10 | O=c1c2nccnc2c(-c2ccc(F)cc2)cn1-c1ccc(OC(F)(F)F)cc1 [Compound 46] | < 50 | < 50
11 | CCn1cnc2c(-c3cnn(C)c3)cn(-c3ccc(OC(F)(F)F)cc3)c(=O)c21 [Compound 617] | 50 to 200 | < 50
12 | O=c1ccc(-c2ccccc2)cn1-c1cncnc1 [Compound 300] | > 200 | > 200
13 | CCOc1ccc(-n2cc(-c3cn[nH]c3)c3cc[nH]c3c2=O)c(C)c1 [Compound 607] | < 50 | < 50
14 | Cn1cc(-c2cn(-c3ccccc3)c(=O)c3c2CCCC3)cn1 [Compound 31] | 50 to 200 | < 50
15 | CCOc1ccc(-n2cc(-c3cnn(C)c3)c3nn(CC)nc3c2=O)c(C)c1 [Compound 686] | < 50 | 50 to 200
16 | Cc1cc(-c2ccc(F)cc2)cn(-c2ccc(OC(F)(F)F)cc2)c1=O [Compound 350] | 50 to 200 | 50 to 200
17 | CC(C)NC(=O)n1cc(-c2ccc(=O)n(-c3ccccc3)c2)cn1 [Compound 75] | 50 to 200 | 50 to 200
18 | Cc1ccc(-n2cc(-c3ccc(F)cc3)c(C)cc2=O)cc1 [Compound 216] | < 50 | 50 to 200
19 | CCn1nc2c(-c3cnn(C)c3)cn(-c3ccc(OC(F)(F)F)cc3)c(=O)c2n1 [Compound 619] | < 50 | < 50
20 | Cn1cc(-c2cn(-c3ccc(OC(F)(F)F)cc3)c(=O)c3c2ccn3C)cn1 [Compound 394] | < 50 | < 50
21 | Cc1cc(=O)n(-c2ccc(OC(F)(F)F)cc2)cc1-c1ccc2c(c1)OC(F)(F)O2 [Compound 208] | 50 to 200 | 50 to 200
22 | Cc1cc(=O)n(-c2ccc(OC(F)(F)F)cc2)cc1-c1ccc(F)c(Cl)c1 [Compound 195] | < 50 | < 50
23 | CCOC(=O)Nc1cccc(-n2cc(-c3ccc(F)cc3)c(C)cc2=O)c1 [Compound 416] | < 50 | < 50
24 | Cn1cc(-c2cn(-c3ccc(Cl)cc3)c(=O)c3[nH]ccc23)cn1 [Compound 605] | < 50 | < 50
25 | O=c1c2nccnc2ccn1-c1ccc(OC(F)(F)F)cc1 [Compound 575] | < 50 | < 50
26 | Cn1cc(-c2cn(-c3ccc(OC(F)(F)F)cc3)c(=O)cc2NCc2cccnc2)cn1 [Compound 160] | < 50 | 50 to 200
27 | Cc1cc(=O)n(-c2ccc(OC(F)(F)F)cc2)cc1-c1ccc2ncsc2c1 [Compound 260] | < 50 | 50 to 200

Row | SMILES | IC50 [1] [µM] | EC50 [2] [µM]
28 | CCn1cnc2c(=O)n(-c3ccc(OC(F)(F)F)cc3)cc(-c3cnn(C)c3)c21 [Compound 636] | > 200 | > 200
29 | CS(=O)(=O)n1cc(-c2ccc(=O)n(-c3ccccc3)c2)cn1 [Compound 71] | > 200 | > 200
30 | CN1C(=O)COc2c(-c3ccc(F)cc3)cn(-c3ccc(OC(F)(F)F)cc3)c(=O)c21 [Compound 53] | > 200 | > 200
31 | CCOc1ccc(-n2cc(-c3c(C)n[nH]c3C)ccc2=O)c(C)c1 [Compound 387] | 50 to 200 | 50 to 200
32 | CCOc1ccc(-n2cc(-c3ccc(F)cc3)c(OCCOC)cc2=O)c(C)c1 [Compound 551] | < 50 | 
33 | Cc1cc(=O)n(-c2ccc(NC(N)=O)cc2)cc1-c1ccc(F)cc1 [Compound 418] | 50 to 200 | 50 to 200
34 | Cc1cc(=O)[nH]cc1-c1cccc2c1OC(F)(F)O2 [Compound 565] | < 50 | < 50
35 | CCOc1ccc(-n2cc(-c3ccnnc3)c3nn(CC)nc3c2=O)c(C)c1 [Compound 685] | < 50 | < 50
36 | Cn1cc(-c2cn(-c3ccc(OC(F)(F)F)cc3)c(=O)cc2Oc2ccccc2)cn1 [Compound 153] | < 50 | < 50
37 | Cc1cc(=O)n(-c2ccc(OC(F)(F)F)cc2)cc1-c1ccc2c(c1)OCC(=O)N2C [Compound 425] | < 50 | < 50
38 | COc1ccc(CNc2cc(=O)n(-c3ccc(OC(F)(F)F)cc3)cc2-c2cnn(C)c2)cc1 [Compound 134] | < 50 | < 50
39 | Cn1cc(-c2cn(-c3ccc(OC(F)(F)F)cc3)c(=O)cc2NCc2cncnc2)cn1 [Compound 531] | < 50 | < 50
40 | O=C1COc2c(-c3ccc(F)cc3)cn(-c3ccc(OC(F)(F)F)cc3)c(=O)c2N1Cc1ccccc1 [Compound 51] | > 200 | > 200
41 | Cn1cc(-c2cn(-c3ccc(OC(F)(F)F)cc3)c(=O)cc2NCc2cccnn2)cn1 [Compound 664] | < 50 | 
42 | CCOc1ccc(-n2cc(-c3cn(C)nc3C(F)(F)F)c(C)cc2=O)c(C)c1 [Compound 239] | < 50 | 
43 | CCOc1ccc(Oc2cc(=O)n(-c3ccc(OC(F)(F)F)cc3)cc2-c2cnn(C)c2)cc1Cl [Compound 155] | < 50 | 
44 | CCOc1ccc(-n2cc(-c3cnn(C)c3)c(Cl)cc2=O)c(C)c1 [Compound 538] | 50 to 200 | 
45 | CCn1c(=O)oc2cc(-c3c[nH]c(=O)cc3C)ccc21 [Compound 564] | < 50 | 
46 | Cc1cc(=O)[nH]cc1-c1ccc2c(c1)N(C)C(=O)CO2 [Compound 662] | > 200 | 
47 | CCn1cnc2c(=O)n(-c3ccc(OC(F)(F)F)cc3)cc(-c3cn[nH]c3)c21 [Compound 640] | > 200 | 
48 | Cn1cc(-c2cn(-c3ccc(OC(F)(F)F)cc3)c(=O)c3nsnc23)cn1 [Compound 41] | < 50 | 
49 | CCOc1ccc(-n2cc(-c3ccc(F)cc3)c3nccnc3c2=O)c(C)c1 [Compound 62] |  | > 200
50 | CC(C)n1nnc2c(-c3cnn(C)c3)cn(-c3ccc(OC(F)(F)F)cc3)c(=O)c21 [Compound 676] |  | < 50
51 | O=c1ccc(-c2ccc(F)cc2)cn1Cc1ccccc1 [Compound 79] |  | < 50
52 | Cc1cc(=O)n(-c2ccc(F)cc2)cc1-c1ccc(OC(F)(F)F)cc1 [Compound 212] |  | 50 to 200
53 | Cn1cc(-c2cn(-c3ccc(OC(F)(F)F)cc3)c(=O)cc2OCCN2CCOCC2=O)cn1 [Compound 150] |  | 50 to 200
